Source: article PMC5315611 (Clinical cancer research : an official journal of the …, 2016)
Like-named read-outs stand apart in the source and are kept apart here.

Key:
[1] = system: relapsed or refractory acute leukemia; conditions: cited from earlier work
[2] = human, in vivo, po
[3] = Veliparib plasma pharmacokinetics; conditions: after multiple doses, MTD (80 mg) vs highest administered dose (100 mg)
[4] = system: AML cell lines and clinical samples; conditions: in vitro; cited from earlier work
clinical = conditions: human, in vivo, po; for half-life: t1/2

What does the source list for `N.N.O=C([O-])C1(C(=O)[O-])CCC1.[Pt+2]` [carboplatin]?
maximum tolerated dose (MTD) of carboplatin ([1]; with topotecan simultaneously for 5 days): 150 mg/m^2/day; carboplatin dose at the MTD of the combination (CI IV days 3-7, with veliparib 80 mg twice daily + topotecan 1.2 mg/m^2/d): 150 mg/m^2/d

For `CC[C@@]1(O)C(=O)OCc2c1cc1n(c2=O)Cc2cc3c(CN(C)C)c(O)ccc3nc2-1` [topotecan], which “maximum tolerated dose (MTD) of topotecan” value ([1]; with carboplatin simultaneously for 5 days) is on record?
The value was 1.6 mg/m^2/day.

And the “topotecan dose at the MTD of the combination” value (CI IV days 3-7, with veliparib 80 mg twice daily + carboplatin 150 mg/m^2/d)?
Its value is 1.2 mg/m^2/d.

And the “toxicity associated with topotecan 1.3 mg/m^2” value (in vivo)?
Its value is “dose-limiting GI mucositis”.

Which Cl/F ([2]; 10 mg) does the source give for `C[C@]1(c2nc3c(C(N)=O)cccc3[nH]2)CCCN1` [veliparib] here?
Its Cl/F is 27.7 ± 9.3 (23) L/h.

What about the Cl/F ([2]; 20 mg) of the same molecule?
The Cl/F was 31.7 ± 7.7 (12) L/h.

And the Cl/F ([2]; 40 mg)?
The Cl/F was 36.4 ± 15.4 (5) L/h.

And the Cl/F ([2]; 80 mg)?
The Cl/F was 26.2 ± 7.1 (30) L/h.

And the Cmax ([2]; 80 mg)?
The Cmax was 608.7 ± 260.3 (35) ng/mL.

And the Tmax ([2]; 80 mg)?
Its Tmax is 1.1 (0.3 - 6.0; 35) h.

What about the t1/2 ([2]; 80 mg) of the same molecule?
The t1/2 was 4.7 ± 1.4 (30) h.

What about the Cl/F ([2]; 90 mg) of the same molecule?
Its Cl/F is 35.9 ± 10.2 (3) L/h.

What about the Cl/F ([2]; 100 mg) of the same molecule?
Its Cl/F is 44.9 ± 50.6 (4) L/h.

What about the “increase in AUC” value [3] of the same molecule?
The value was 2.0 fold.

What about the “effect on the antiproliferative and proapoptotic effects of topotecan” value [4] of the same molecule?
Its value is “enhances”.

And the “synergy with cytarabine or etoposide” value [4]?
The value was “no synergy”.

And the “maximum tolerated dose (MTD) of veliparib” value (with CI IV topotecan 1.2 mg/m^2/d + carboplatin 150 mg/m^2/day on days 3-7)?
The value was 80 mg twice daily.

And the Cmax (clinical; 10 mg)?
Its Cmax is 74.6 ± 33 ng/mL.

What about the half-life (clinical; 10 mg) of the same molecule?
Its half-life is 5.5 ± 3.5 h.

And the Tmax (clinical; 10 mg)?
Its Tmax is 2 h.

And the Cmax (clinical; 20 mg)?
The Cmax was 102 ± 31.6 ng/mL.

And the half-life (clinical; 20 mg)?
The half-life was 4.7 ± 1.1 h.

And the Tmax (clinical; 20 mg)?
The Tmax was 2 h.

And the Cmax (clinical; 40 mg)?
Its Cmax is 231 ± 128 ng/mL.

What about the half-life (clinical; 40 mg) of the same molecule?
The half-life was 4.1 ± 0.9 h.

What about the Tmax (clinical; 40 mg) of the same molecule?
Its Tmax is 1 h.

And the Cmax (clinical; 90 mg)?
Its Cmax is 509 ± 101 ng/mL.

And the half-life (clinical; 90 mg)?
The half-life was 3.2 ± 1.2 h.

And the Tmax (clinical; 90 mg)?
The Tmax was 1 h.

And the Cmax (clinical; 100 mg)?
The Cmax was 1120 ± 718 ng/mL.

And the half-life (clinical; 100 mg)?
The half-life was 5.9 ± 2.4 h.

What about the Tmax (clinical; 100 mg) of the same molecule?
The Tmax was 1 h.
